Data reported in patent US20100013377A1, “Compounds for use in Opto-Electrical Devices” (CDT OXFORD LIMITED, priority 2006, published 2010).

Details: in all of xylene, toluene, chlorobenzene, chloroform or tetrahydrofuran
Text: By “solubilizing substituent” we mean a substituent which renders the triazine sufficiently soluble in organic solvents that it can be solution processed to fabricate an opto-electrical device by, for example, ink-jet printing or spin-coating. […] Organic solvents suitable for opto-electrical device fabrication include xylene, toluene, chlorobenzene, chloroform or tetrahydrofuran but preferably toluene or xylene.

For `c1ccc(-c2ccc(-c3nc(-c4ccc(-c5ccccc5)cc4)nc(-c4ccc(-c5ccccc5)cc4)n3)cc2)cc1` [2,4,6-tris(biphenyl)-1,3,5-triazine], the solubility was less than 5000 µg/mL.
